Read-outs that look alike come from different tables or passages of the source.
Experiments:
[1] = test system: A549 adenocarcinoma cell line; assay: Cell proliferation assay, A549 (MTT); conditions: for IC50: Tosylate
Method: (§1) In vitro experiments were conducted on four cancer cell lines: the A549 adenocarcinoma cell line, the H520 squamous cell carcinoma the H82 small cell lung carcinoma and Calu 3 lung adenocarcinoma. The A549 tumor cells, were plated at a density of 1.5×10^4 cells per mL and let to adhere on 96-well microplates in F12K cell culture medium enriched with 10% fetal calf serum (FCS). The H520, H82 and Calu 3 tumor cells were plated at a density of 5×10^4 cells per mL in RPMI+10% FCS. After 24 h in culture, the medium was changed and cells were exposed to ASM-024 at concentrations ranging from 10^−7M to 10^−3M (FIGS. 1A-1C). After 3 and 6 days in culture, cell growth was quantified using the MTT colorimetric assay (M2128, Sigma) at 575-690 nm or the Cell Titer fluorescence assay (G8080, Promega) at 560/590 nm.
(§2) In an another set of experiments, a series of 16 other homopiperazinium compounds, in addition to ASM-024, were tested for their anti-proliferative effect on the four tumor cell lines described above after up to 6 days in culture at concentrations of 10^-7M to 10^-3M. (FIGS. 4A-4E) Cell growth was quantified using the MTT colorimetric assay for the A-549, H520 and Calu 3 cell lines and the CellTiter Fluorescence assay.for the H82 tumor cell line These are established method of determining viable cell number in proliferation studies.

[2] = test system: H520 squamous cell carcinoma; assay: Cell proliferation assay, H520 (MTT); assay type: cell-based; conditions: for IC50: Tosylate
Method: as §1, §2

[3] = test system: H82 small cell lung carcinoma; assay: Cell proliferation assay, H82 (CellTiter fluorescence); assay type: cell-based; conditions: for IC50: Homo sapiens
Method: as §1, §2

[4] = test system: MCF7; assay: Anti-proliferative MTT assay, MCF7; assay type: cell-based; conditions: Homo sapiens
Method: (§3) The effect of ASM-024 on the growth of MCF7, SK-BR-3, MDA-MB-231, BT-474 (mammary adenocarcinomas), SK-OV/3 (ovary adenocarcinoma), PC3 (prostate adenocarcinoma) SK-MEL-28(skin melanoma) and C6 (tumor cell glioma) was evaluated. Cells were cultured in RPMI medium and incubated with different concentrations of ASM-024. Cell proliferation was measured on days 3 and 6 by the MTT colorimetric assay. Absorbance at 576-690 nm was analyzed with a microplate reader and expressed as optical density (OD) and as a percentage of the value of corresponding untreated cells. The IC50 was determined as the drug concentration required to inhibit cell growth by 50% from a plot of percent cell viability from control untreated cells versus treated cells.

[5] = test system: SK-BR-3; assay: Anti-proliferative MTT assay, SK-BR-3; assay type: cell-based; conditions: Homo sapiens
Method: as §3

[6] = test system: MDA-MB-231; assay: Anti-proliferative MTT assay, MDA-MB-231; assay type: cell-based; conditions: Homo sapiens
Method: as §3
FIGS. 5A and 5B illustrate the observed results for the MDA-MB-231 mammary/breast gland adenocarcinoma assay. Cells were incubated with the dose drug shown and growth measured at the days indicated. In FIG. 5A the data is expressed as optical density (OD) and in FIG. 5B as a percentage of the value of corresponding untreated cells. P<0.05 compared to control at same day by Student t-test

[7] = test system: BT-474; assay: Anti-proliferative MTT assay, BT-474; assay type: cell-based; conditions: Homo sapiens
Method: as §3

[8] = test system: SK-OV/3; assay: Anti-proliferative MTT assay, SK-OV/3; assay type: cell-based; conditions: Homo sapiens
Method: as §3

[9] = test system: SK-MEL-28; assay: Anti-proliferative MTT assay, SK-MEL-28; assay type: cell-based; conditions: Homo sapiens
Method: as §3

[10] = test system: C6; assay: Anti-proliferative MTT assay, C6; assay type: cell-based; conditions: Rattus norvegicus
Method: as §3

[11] = test system: PC3; assay: Anti-proliferative MTT assay, PC3; assay type: cell-based; conditions: Homo sapiens
Method: as §3

[12] = test system: A549 cells; assay: In vivo antitumor assay, A549 tumor cell-bearing nu/nu mice (Example 27); conditions: 30 mg/kg daily, subcutaneous or intraperitoneal
Method: For the in vivo antitumor assay, nu/nu mice were inoculated subcutaneously in the flank of mice with 2×10^6 A549 cells in sterile PBS mixed with 50% matrigel. Two days later ASM-024 was administered daily by subcutaneous (at a site close to the tumor) or intraperitoneal delivery at the dose of 30 mg/kg for up to 50 days. When palpable, tumor length and width were measured with a caliper and tumor volume calculated according to the formula Volume=(width2×length)/2.
FIGS. 6A, 6B, 7A and 7B are illustrating the antitumor effect of ASM-024 in A549 tumor cell-bearing mice after 51 days. The antitumor effect of each delivery mode was evaluated by measuring tumor volume (FIGS. 6A and 6B) and weight (FIGS. 7A and 7B). Values are presented as the mean±standard deviation.

[13] = test system: A549 lung adenocarcinoma; assay: In vitro combination treatment with cisplatin or taxol, A549 (MTT); assay type: cell-based, human; conditions: ASM-024 alone, 3 days of drug treatment
Method: The concomitant effect of ASM-024 and cisplatin or taxol on the proliferation of A549 lung adenocarcinoma and MCF7 breast cancer adenocarcinoma cells was assessed in vitro.
A549 cells (3.0×10^3cells/well) were first cultured with 10% FBS in F12K media and MCF7 cells (10×10^3 cells/well) with 10% FBS in EMEM media for 24 hours to allow cells to adhere to the plate at 37° C. in a humidified incubator with 5% CO2. The next day, the media was replaced in medium containing appropriate drug concentrations […] for an additional 72 hours. Cell viability was quantified using the MTT colorimetric assay (M2128, Sigma) at 575-690 nm.

With `CC[N+]1(CC)CCCN(c2ccccc2)CC1.Cc1ccc(S(=O)(=O)[O-])cc1` [ASM-024, 1,1-Diethyl-4-phenyl-homopiperazinium Tosylate] the “cell proliferation / cell growth inhibition (in words)” value ([1]; A549, day 3 and day 6, text on figures) was “dose-dependent decrease in cell proliferation”, the IC50 ([1]; read-out: IC50 Day 3, A549, day 3 in culture) was 56 ± 20 µM and the IC50 ([1]; read-out: IC50 Day 6, A549, day 6 in culture) was 59 ± 21 µM. The “cell proliferation / cell growth inhibition (in words)” value ([2]; H520, day 3 and day 6, text on figures) was “dose-dependent decrease in cell proliferation”, the IC50 ([2]; H520, day 3 in culture, read-out: IC50 Day 3) was 468 ± 287 µM and the IC50 ([2]; H520, day 6 in culture, read-out: IC50 Day 6) was 257 ± 257 µM. For the same compound, the “cell proliferation / cell growth inhibition (in words)” value ([3]; H82, day 3 and day 6, text on figures) was “dose-dependent decrease in cell proliferation”, the IC50 ([3]; NCI-H82, 72 h, H82, day 3 in culture, read-out: IC50 Day 3) was 314 ± 205 µM and the IC50 ([3]; NCI-H82, 144 h, H82, day 6 in culture, read-out: IC50 Day 6) was 218 ± 76 µM. The IC50 ([4]; 72 h, MCF7, day 3, read-out: IC50 Day 3) was 470 ± 364 µM, the IC50 ([4]; 144 h, MCF7, day 6, read-out: IC50 Day 6) was 209 ± 42 µM and the IC50 ([5]; 72 h, SK-BR-3, day 3, read-out: IC50 Day 3) was greater than 1000 µM. For the same compound, the IC50 ([5]; 144 h, SK-BR-3, day 6, read-out: IC50 Day 6) was 197 ± 67 µM, the IC50 ([6]; 72 h, MDA-MB-231, day 3, read-out: IC50 Day 3) was greater than 1000 µM and the IC50 ([6]; 144 h, MDA-MB-231, day 6, read-out: IC50 Day 6) was 661 ± 115 µM. It also gave an IC50 ([7]; 72 h, BT-474, day 3, read-out: IC50 Day 3) greater than 1000 µM, an IC50 ([7]; 144 h, BT-474, day 6, read-out: IC50 Day 6) of 644 ± 230 µM and an IC50 ([8]; 72 h, SK-OV/3, day 3, read-out: IC50 Day 3) greater than 600 µM. The IC50 ([8]; 144 h, SK-OV/3, day 6, read-out: IC50 Day 6) was 618 ± 125 µM, the IC50 ([9]; 72 h, SK-MEL-28, day 3, read-out: IC50 Day 3) was greater than 800 µM and the IC50 ([9]; 144 h, SK-MEL-28, day 6, read-out: IC50 Day 6) was 259 ± 63 µM. The IC50 ([10]; 72 h, C6, day 3, read-out: IC50 Day 3) was 353 ± 52 µM, the IC50 ([10]; 144 h, C6, day 6, read-out: IC50 Day 6) was 186 ± 27 µM and the IC50 ([11]; PC-3, 72 h, PC3, day 3, read-out: IC50 Day 3) was greater than 700 µM. For the same compound, the IC50 ([11]; PC-3, 144 h, PC3, day 6, read-out: IC50 Day 6) was 176 ± 29 µM, the “Tumor growth, as determined by mean tumor volumes” value ([12]; 51 days of observation, vs control mice) was “reduced” and the “Mean tumor weight after surgical resection” value ([12]; after 51 days, vs vehicle-treated control mice) was “reduction in tumor mass”. The “A549 cell growth inhibition” value [13] was “dose-dependent growth inhibition of cell proliferation”.

— patent US10507212B2, “Method for use of homopiperazinium compounds in the treatment of cancer” (UNIVERSITÉ LAVAL, priority 2014, dated 2019)
